For 10 compounds, IC50 results are on record in BindingDB's records for doi:10.1016/j.bmcl.2008.07.123 (Bristol-Myers Squibb, 2008).

A short description of this assay: Antagonist activity at CCR2 in human PBMC assessed as MCP1-induced chemotaxis.

On to `CCCCN1CCC(NC(=O)c2ccc(SC)cc2)C(NC(=O)CNC(=O)c2cc(C(F)(F)F)ccc2N)C1` (racemic) [(+/-)-2-amino-N-(2-(1-butyl-4-(4-(methylthio)benzamido)piperidin-3-ylamino)-2-oxoethyl)-5-(trifluoromethyl)benzamide], for which the IC50 (commonly the concentration at which inhibition is half-maximal) was determined as 17.5 nM. Regarding `CCCCN1CCC(NCc2ccc(SC)cc2)C(NC(=O)CNC(=O)c2cc(C(F)(F)F)ccc2N)C1` (racemic) [(+/-)-2-amino-N-(2-(1-butyl-4-(4-(methylthio)benzylamino)piperidin-3-ylamino)-2-oxoethyl)-5-(trifluoromethyl)benzamide], the concentration for half-maximal inhibition (IC50) stood at 19 nM. For `CSc1ccc(C(=O)NC2CCN(C)CC2NC(=O)CNC(=O)c2cc(C(F)(F)F)ccc2N)cc1` (racemic) [(+/-)-2-amino-N-(2-(1-methyl-4-(4-(methylthio)benzamido)piperidin-3-ylamino)-2-oxoethyl)-5-(trifluoromethyl)benzamide] the value was 38.5 nM. For `CSc1ccc(CNC2CCN(C)CC2NC(=O)CNC(=O)c2cc(C(F)(F)F)ccc2N)cc1` (racemic) [(+/-)-2-amino-N-(2-(1-methyl-4-(4-(methylthio)benzylamino)piperidin-3-ylamino)-2-oxoethyl)-5-(trifluoromethyl)benzamide] the value was 27.5 nM; for `CCCN1CCC(NCc2ccc(SC)cc2)C(NC(=O)CNC(=O)c2cc(C(F)(F)F)ccc2N)C1` (racemic) [(+/-)-2-amino-N-(2-(4-(4-(methylthio)benzylamino)-1-propylpiperidin-3-ylamino)-2-oxoethyl)-5-(trifluoromethyl)benzamide], 5.4 nM. For `CSc1ccc(CNC2CCNCC2NC(=O)CNC(=O)c2cc(C(F)(F)F)ccc2N)cc1` (racemic) [(+/-)-2-amino-N-(2-(4-(4-(methylthio)benzylamino)piperidin-3-ylamino)-2-oxoethyl)-5-(trifluoromethyl)benzamide] the value was 285 nM; for `CCCN1CCC(NC(=O)c2ccc(SC)cc2)C(NC(=O)CNC(=O)c2cc(N)cc(C(F)(F)F)c2)C1` (racemic) [(+/-)-3-amino-N-(2-(4-(4-(methylthio)benzamido)-1-propylpiperidin-3-ylamino)-2-oxoethyl)-5-(trifluoromethyl)benzamide], 25 nM.

As to `CCCN1CCC(NCc2ccc(SC)cc2)C(NC(=O)CNC(=O)c2cc(N)cc(C(F)(F)F)c2)C1` (racemic) [(+/-)-3-amino-N-(2-(4-(4-(methylthio)benzylamino)-1-propylpiperidin-3-ylamino)-2-oxoethyl)-5-(trifluoromethyl)benzamide], the IC50 stood at 26 nM. The result for `CCCN1CCC(NCc2ccc(SC)cc2)C(NC(=O)CNC(=O)c2cc(C(F)(F)F)ccc2NC(=O)N2CCCC2)C1` (racemic) [(+/-)-N-(2-(2-(4-(4-(methylthio)benzylamino)-1-propylpiperidin-3-ylamino)-2-oxoethylcarbamoyl)-4-(trifluoromethyl)phenyl)pyrrolidine-1-carboxamide] reads 4.8 nM. For `CCCN1CCC(NCc2ccc(SC)cc2)C(NC(=O)CNC(=O)c2cc(C(F)(F)F)ccc2NC(=O)NC)C1` (racemic) [(+/-)-N-(2-(4-(4-(methylthio)benzylamino)-1-propylpiperidin-3-ylamino)-2-oxoethyl)-2-(3-methylureido)-5-(trifluoromethyl)benzamide] the value was 8 nM.
